Reference: US9239334B2, “Fatty acid C16: 1N7-palmitoleate a lipokine and biomarker for metabolic status” (PRESIDENT AND FELLOWS OF HARVARD COLLEGE, priority 2008, dated 2016)

How the values were obtained:
[1] = system: insulin receptor signaling in muscle tissue; assay: Insulin signaling in muscle of lipid-infused mice (immunoblotting); type: in vivo; settings: fatty acid:palmitoleate infusion 3.3 μl/min
From the text: (§1) FIGS. 7A-7G show data on the regulation of insulin signaling and glucose metabolism by palmitoleate. FIG. 7A is the basal and insulin-stimulated phosphorylation of insulin receptor (IR), insulin receptor substrate-1 (IRS-1) and -2 (IRS-2) and AKT in liver of mice infused with vehicle (Veh), TG:palmitoleate (C16:1n7) or TG:palmitate (C16). Representative blots are shown and quantifications on the right are averaged results of three mice in each treatment group. […] Representative blots are shown and quantifications on the right are averaged results of three mice in each treatment group.
The left panel presents the insulin-stimulated phosphorylation of insulin receptor and AKT in liver of mice infused with vehicle or palmitoleate. […] Mice were infused with vehicle or palmitoleate at 3.3 μl/min for six hrs, and insulin (1 U/Kg) was injected through the infusing tubing. Three minutes after insulin injection, tissues were collected and immunoblotting analyses were performed.
The present invention also provides for the regulation of insulin action by increased circulating palmitoleate. To study whether palmitoleate regulates systemic metabolic responses, lipid infusions were administered in conscious mice. Lipid infusion has been used widely to investigate the relationship between plasma FFAs and insulin resistance, but almost all studies using this protocol utilized preparations of natural lipid products containing a variety of fatty acids. Kim et al., 114 J. Clin. Invest. 823-27 (2004); Kim et al., 277 J. Biol. Chem. 32915-22 (2002); Yu et al., 277 J. Biol. Chem. 50230-36 (2002). […]
Samples of 200 μl serum were collected using heparin-coated glass tubes and spun at 13,000 g in a microcentrifuge to separate the plasma. […] Tissue protein lysates was separated with SDS-PAGE gels and phosphorylated or total proteins were detected with the following antibodies: phospho AKT Serine 473, AKT, insulin receptor, phospho-tyrosine (Santa Cruz Biotech.); IRS-1 and IRS-2 (Upstate); phospho-GSK and GSK (Cell Signaling Tech.); phospho-insulin receptor from (Calbiocbem). […]

[2] = Hyperinsulinemic-euglycemic clamp in palmitoleate-infused mice; type: in vivo
From the text: as §1
FIG. 7G is the regulation of systemic metabolic responses by adipose-derived lipid hormones (Lipokines). In parallel with a variety of adipokines, specific lipids released from adipocytes in response to physiological stimuli act at remote sites including liver and muscle and regulate systemic lipid and carbohydrate metabolism. Lipid chaperones negatively regulate one of these lipokines, C16:1n7 (palmitoleate), and in the absence of these FABPs, strong flux of palmitoleate from adipose tissue to liver and muscle results in improved metabolic responses.
To investigate whether the increased insulin signaling by elevated serum palmitoleate can be translated into improved glucose metabolism, hyperinsulinemic-euglycemic clamp studies were performed on mice infused with either vehicle or palmitoleate. To enable delivery of lipid at a rate that is compatible with clamp studies, fatty acid:palmitoleate was used instead of TG:palmitoleate. That palmitoleate enhanced both muscle and liver insulin signaling in this setting was confirmed by examining insulin stimulated activation of insulin receptor and AKT (FIG. 21). […] Instead, the increased glucose infusion rate in these mice was driven by enhanced whole body glucose metabolism (FIG. 7F), confirming that the increased insulin signaling by palmitoleate infusion can be directly reflected as improved glycemic control in conscious mice.
INTRALIPID® fatty acid lipid infusion solution with 2 mM triglycerides:palmitate or palmitoleate were prepared using a previously described protocol with modifications (Stein et al., 1997). Briefly, lipids were dissolved in a solvent containing 5% glycerol and 0.72% phosphocholine in 0.9% saline, heated at 80° C. for 10 min, and then sonicated 1 min four times. For TG:palmitoleate, the heating was omitted to avoid oxidization of the lipids. Lipids stay in suspension for a week, so to prevent clogging the preparations must be vortexed well before loading the syringe and tubing. […] Serum FFAs were determined using a commercial kit (Wako Chem.). […]

[3] = hyperinsulinemic-euglycemic clamp, vs vehicle

For `CCCCCC/C=C\CCCCCCCC(=O)O` [palmitoleate, C16:1n7-palmitoleate], the “muscle insulin signaling (insulin receptor and AKT activation)” value [1] was “enhanced”, the “glucose infusion rate to maintain euglycemia” value [2, 3] was “significantly higher” and the “whole body glucose metabolism (glucose disposal rate)” value [2, 3] was “enhanced”. The “clamped hepatic glucose production” value ([2]; hyperinsulinemic-euglycemic clamp, vs vehicle controls) was “Neither basal nor clamped hepatic glucose production was significantly changed” and the “basal hepatic glucose production” value ([2]; vs vehicle controls) was “Neither basal nor clamped hepatic glucose production was significantly changed”.
